Values joined by “and” are separate entries in the source; they are usually repeats but may differ in a detail not shown here. Identical values can stand only once.
Test system: 855422-203-R-J1-PDC spheroids with HUVEC/MSC, viability
Test: Anticancer human tumor 855422-203-R-J1-PDC patient-derived bladder carcinoma cell line growth inhibition [PI3K]
Conditions: for viability, T/C: stronger effect = lower value
Method in brief: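 Targeted small molecules plus PI3K inhibitors, half-log dose series from Cmax (default top 10 microM), were applied to heterotypic spheroids of cancer cells with HUVEC and MSCs. Viability indicated growth inhibition.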

[1] = curve of first compound, second compound 0.0316 µM
[2] = curve of first compound, second compound 0.1 µM
[3] = curve of first compound, second compound 0.316 µM
[4] = curve of first compound, second compound 1 µM
[5] = curve of first compound, second compound 3.16 µM
[6] = curve of first compound, second compound 10 µM
[7] = second compound 0.0316 µM, first compound 0.0316 µM
[8] = second compound 0.0316 µM, first compound 0.1 µM
[9] = second compound 0.0316 µM, first compound 0.316 µM
[10] = second compound 0.0316 µM, first compound 1 µM
[11] = second compound 0.1 µM, first compound 0.0316 µM
[12] = second compound 0.1 µM, first compound 0.1 µM
[13] = second compound 0.1 µM, first compound 0.316 µM
[14] = second compound 0.1 µM, first compound 1 µM
[15] = second compound 0.316 µM, first compound 0.0316 µM
[16] = second compound 0.316 µM, first compound 0.1 µM
[17] = second compound 0.316 µM, first compound 0.316 µM
[18] = second compound 0.316 µM, first compound 1 µM
[19] = second compound 1 µM, first compound 0.0316 µM
[20] = second compound 1 µM, first compound 0.1 µM
[21] = second compound 1 µM, first compound 0.316 µM
[22] = second compound 1 µM, first compound 1 µM
[23] = second compound 3.16 µM, first compound 0.0316 µM
[24] = second compound 3.16 µM, first compound 0.1 µM
[25] = second compound 3.16 µM, first compound 0.316 µM
[26] = second compound 3.16 µM, first compound 1 µM
[27] = second compound 10 µM, first compound 0.0316 µM
[28] = second compound 10 µM, first compound 0.1 µM
[29] = second compound 10 µM, first compound 0.316 µM
[30] = second compound 10 µM, first compound 1 µM
[31] = second compound 0.0316 µM, first compound 3.16 µM
[32] = second compound 0.0316 µM, first compound 10 µM
[33] = second compound 0.1 µM, first compound 3.16 µM
[34] = second compound 0.1 µM, first compound 10 µM
[35] = second compound 0.316 µM, first compound 3.16 µM
[36] = second compound 0.316 µM, first compound 10 µM
[37] = second compound 1 µM, first compound 3.16 µM
[38] = second compound 1 µM, first compound 10 µM
[39] = second compound 3.16 µM, first compound 3.16 µM
[40] = second compound 3.16 µM, first compound 10 µM
[41] = second compound 10 µM, first compound 3.16 µM
[42] = second compound 10 µM, first compound 10 µM
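Further: agents incubated with spheroids for one week before read-out.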
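Wherever viability, T/C is given: 100% = DMSO vehicle-treated control wells.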

Compound: CCN1CCN(Cc2ccc(Nc3ncc(F)c(-c4cc(F)c5nc(C)n(C(C)C)c5c4)n3)nc2)CC1 + Cc1nc(NC(=O)N2CCCC2C(N)=O)sc1-c1ccnc(C(C)(C)C(F)(F)F)c1
- IC50 [1]: 558 nM
- IC50 [2]: 816 nM
- IC50 [3]: 141 nM
- IC50 [4]: 12 nM
- IC50 [5]: < 3.16 nM
- IC50 [6]: < 3.16 nM
- viability, T/C (second compound 0.0316 µM, first compound 0.00316 µM): 102%
- viability, T/C (second compound 0.0316 µM, first compound 0.01 µM): 80.5%
- viability, T/C [7]: 97.1%
- viability, T/C [8]: 70.4%
- viability, T/C [9]: 60.1%
- viability, T/C [10]: 40.6%
- viability, T/C (second compound 0.1 µM, first compound 0.00316 µM): 99.9%
- viability, T/C (second compound 0.1 µM, first compound 0.01 µM): 90.3%
- viability, T/C [11]: 86%
- viability, T/C [12]: 67.7%
- viability, T/C [13]: 60.6%
- viability, T/C [14]: 47.7%
- viability, T/C (second compound 0.316 µM, first compound 0.00316 µM): 80.3%
- viability, T/C (second compound 0.316 µM, first compound 0.01 µM): 79.7%
- viability, T/C [15]: 65.1%
- viability, T/C [16]: 54.9%
- viability, T/C [17]: 40.4%
- viability, T/C [18]: 28.2%
- viability, T/C (second compound 1 µM, first compound 0.00316 µM): 57.2%
- viability, T/C (second compound 1 µM, first compound 0.01 µM): 56.2%
- viability, T/C [19]: 35.2%
- viability, T/C [20]: 34.7%
- viability, T/C [21]: 22%
- viability, T/C [22]: 20.2%
- viability, T/C (second compound 3.16 µM, first compound 0.00316 µM): 37.1%
- viability, T/C (second compound 3.16 µM, first compound 0.01 µM): 36.4%
- viability, T/C [23]: 20.3%
- viability, T/C [24]: 18.8%
- viability, T/C [25]: 15.4%
- viability, T/C [26]: 16.1%
- viability, T/C (second compound 10 µM, first compound 0.00316 µM): 18.5%
- viability, T/C (second compound 10 µM, first compound 0.01 µM): 12.4%
- viability, T/C [27]: 13.6%
- viability, T/C [28]: 12.1%
- viability, T/C [29]: 9.73%
- viability, T/C [30]: 11.2%

Compound: C=CC(=O)N1CCN(c2nc(=O)n(-c3c(C)ccnc3C(C)C)c3nc(-c4c(O)cccc4F)c(F)cc23)C(C)C1 (configuration not stated)
- viability, T/C (compound 0.0316 µM): 109% [middle of 4 runs]
- viability, T/C (compound 0.1 µM): 95.2% [middle of 4 runs]
- viability, T/C (compound 0.316 µM): 117% [middle of 4 runs]
- viability, T/C (compound 1 µM): 108% [middle of 4 runs]
- viability, T/C (compound 3.16 µM): 122% [middle of 4 runs]
- viability, T/C (compound 10 µM): 121% [middle of 4 runs]
- IC50 (curve of compound): > 10000 nM

Compound: CC(C)NCC(C(=O)N1CCN(c2ncnc3c2C(C)CC3O)CC1)c1ccc(Cl)cc1 (configuration not stated)
- viability, T/C (compound 0.0316 µM): 93.1% [middle of 4 runs]
- viability, T/C (compound 0.1 µM): 82.9% [middle of 4 runs]
- viability, T/C (compound 0.316 µM): 78.5% [middle of 4 runs]
- viability, T/C (compound 1 µM): 51.7% [middle of 4 runs]
- viability, T/C (compound 3.16 µM): 36.8% [middle of 4 runs]
- viability, T/C (compound 10 µM): 19.9% (2×) and 18.6% and 19.6%
- IC50 (curve of compound): 1.25 µM [middle of 4 runs]

Compound: CNC(=O)c1ccc(N2C(=S)N(c3ccc(C#N)c(C(F)(F)F)c3)C(=O)C2(C)C)cc1F + CC(Nc1ccc2c(c1)OCCn1cc(N3C(=O)OCC3C(F)F)nc1-2)C(N)=O
- IC50 (curve of first compound, second compound 0.00316 µM): > 10000 nM
- IC50 (curve of first compound, second compound 0.01 µM): > 10000 nM
- IC50 [1]: > 10000 nM
- IC50 [2]: > 10000 nM
- IC50 [3]: 265 nM
- IC50 [4]: < 31.6 nM
- viability, T/C (second compound 0.00316 µM, first compound 0.0316 µM): 106%
- viability, T/C (second compound 0.00316 µM, first compound 0.1 µM): 83.8%
- viability, T/C (second compound 0.00316 µM, first compound 0.316 µM): 95.8%
- viability, T/C (second compound 0.00316 µM, first compound 1 µM): 81.2%
- viability, T/C (second compound 0.00316 µM, first compound 3.16 µM): 72.9%
- viability, T/C (second compound 0.00316 µM, first compound 10 µM): 65.4%
- viability, T/C (second compound 0.01 µM, first compound 0.0316 µM): 102%
- viability, T/C (second compound 0.01 µM, first compound 0.1 µM): 91.2%
- viability, T/C (second compound 0.01 µM, first compound 0.316 µM): 90%
- viability, T/C (second compound 0.01 µM, first compound 1 µM): 77.3%
- viability, T/C (second compound 0.01 µM, first compound 3.16 µM): 79%
- viability, T/C (second compound 0.01 µM, first compound 10 µM): 72.5%
- viability, T/C [7]: 86.6%
- viability, T/C [8]: 82.1%
- viability, T/C [9]: 79.9%
- viability, T/C [10]: 66.6%
- viability, T/C [31]: 72.8%
- viability, T/C [32]: 64.3%
- viability, T/C [11]: 76.9%
- viability, T/C [12]: 76.7%
- viability, T/C [13]: 83.3%
- viability, T/C [14]: 63.1%
- viability, T/C [33]: 62%
- viability, T/C [34]: 52.8%
- viability, T/C [15]: 51.4%
- viability, T/C [16]: 46.9%
- viability, T/C [17]: 53.6%
- viability, T/C [18]: 49.1%
- viability, T/C [35]: 52.7%
- viability, T/C [36]: 43.1%
- viability, T/C [19]: 37.2%
- viability, T/C [20]: 36.4%
- viability, T/C [21]: 37%
- viability, T/C [22]: 41.3%
- viability, T/C [37]: 38.5%
- viability, T/C [38]: 33.8%

Compound: C[C@@H](NC(=O)c1ncnc(N)c1Cl)c1ncc(C(=O)Nc2cc(C(F)(F)F)c(Cl)cn2)s1 + Cc1nc(NC(=O)N2CCCC2C(N)=O)sc1-c1ccnc(C(C)(C)C(F)(F)F)c1
- IC50 [1]: > 10000 nM
- IC50 [2]: > 10000 nM
- IC50 [3]: > 10000 nM
- IC50 [4]: 4570 nM
- IC50 [5]: < 31.6 nM
- IC50 [6]: < 31.6 nM
- viability, T/C [7]: 97.8%
- viability, T/C [8]: 85.9%
- viability, T/C [9]: 118%
- viability, T/C [10]: 100%
- viability, T/C [31]: 118%
- viability, T/C [32]: 109%
- viability, T/C [11]: 72.7%
- viability, T/C [12]: 86.8%
- viability, T/C [13]: 104%
- viability, T/C [14]: 91.2%
- viability, T/C [33]: 111%
- viability, T/C [34]: 93.4%
- viability, T/C [15]: 73.1%
- viability, T/C [16]: 85.9%
- viability, T/C [17]: 94.3%
- viability, T/C [18]: 85.8%
- viability, T/C [35]: 94.6%
- viability, T/C [36]: 60.9%
- viability, T/C [19]: 70.1%
- viability, T/C [20]: 67.2%
- viability, T/C [21]: 51.2%
- viability, T/C [22]: 68.6%
- viability, T/C [37]: 62.3%
- viability, T/C [38]: 23.4%
- viability, T/C [23]: 39.3%
- viability, T/C [24]: 44.6%
- viability, T/C [25]: 30.9%
- viability, T/C [26]: 42.8%
- viability, T/C [39]: 33.5%
- viability, T/C [40]: 14.3%
- viability, T/C [27]: 25%
- viability, T/C [28]: 18.9%
- viability, T/C [29]: 24.3%
- viability, T/C [30]: 18.8%
- viability, T/C [41]: 11.7%
- viability, T/C [42]: 4.33%

Compound: Cn1ncc(Cl)c1-c1cc(C(=O)NC(CN)Cc2cccc(F)c2)sc1Cl (configuration not stated) + CC(Nc1ncnc2nc[nH]c12)c1cc2cccc(Cl)c2c(=O)n1-c1ccccc1
- IC50 [1]: 572 nM
- IC50 [2]: 706 nM
- IC50 [3]: 634 nM
- IC50 [4]: 695 nM
- IC50 [5]: 454 nM
- IC50 [6]: 411 nM
- viability, T/C [7]: 98.1%
- viability, T/C [8]: 78.2%
- viability, T/C [9]: 58%
- viability, T/C [10]: 41.9%
- viability, T/C [31]: 25.4%
- viability, T/C [32]: 9.19%
- viability, T/C [11]: 95.2%
- viability, T/C [12]: 84.5%
- viability, T/C [13]: 59.3%
- viability, T/C [14]: 46.4%
- viability, T/C [33]: 25.1%
- viability, T/C [34]: 8.79%
- viability, T/C [15]: 92.2%
- viability, T/C [16]: 74.7%
- viability, T/C [17]: 55.5%
- viability, T/C [18]: 48.3%
- viability, T/C [35]: 25.9%
- viability, T/C [36]: 6.18%
- viability, T/C [19]: 79.8%
- viability, T/C [20]: 75.4%
- viability, T/C [21]: 62.1%
- viability, T/C [22]: 45%
- viability, T/C [37]: 22.5%
- viability, T/C [38]: 10%
- viability, T/C [23]: 87.5%
- viability, T/C [24]: 75.3%
- viability, T/C [25]: 52.4%
- viability, T/C [26]: 39.5%
- viability, T/C [39]: 21.9%
- viability, T/C [40]: 8.05%
- viability, T/C [27]: 83.4%
- viability, T/C [28]: 71.8%
- viability, T/C [29]: 52.5%
- viability, T/C [30]: 36.9%
- viability, T/C [41]: 20.1%
- viability, T/C [42]: 5.58%
